Measured values taken from the NIST ThermoML archive (doi:10.1016/j.fluid.2016.04.009).

What was measured:
[1] = for viscosity / mass density: 101.33 kPa; for viscosity / mass density / surface tension liquid-gas: Liquid; for viscosity: Concentric cylinders viscometry; for mass density: Vibrating tube method; for surface tension liquid-gas: Pendant drop shape
[2] = Molar enthalpy of transition or fusion; conditions: Crystal; DSC
[3] = refractive index (Na D-line) (dimensionless); conditions: 101.33 kPa, Liquid, Standard Abbe refractometry
[4] = molar heat capacity at constant pressure; conditions: 298.15 K; 101.33 kPa; Liquid; Drop calorimetry

CCCC[N+]1(C)CCCC1.O=S(=O)([N-]S(=O)(=O)C(F)(F)F)C(F)(F)F
Conditions	mass density, [1] [kg/m3]	refractive index, [3]	viscosity, [1] [mPa·s]
288.15 K	–	1.42612	–
293.15 K	1406.1	1.42466	101.71
298.15 K	1401.6	1.42319	79.57
303.15 K	1397.2	1.42173	63.64
308.15 K	1392.7	1.42027	51.71
313.15 K	1388.3	1.4188	42.67
318.15 K	1383.8	1.41734	35.6
323.15 K	1379.4	–	30.07
328.15 K	1375.1	–	25.66
333.15 K	1370.7	–	22.16
338.15 K	1366.4	–	19.21
343.15 K	1362.1	–	16.83
348.15 K	1357.8	–	14.84
353.15 K	1353.6	–	13.21
358.15 K	1349.3	–	11.77
363.15 K	1345.1	–	10.57

Conditions	Normal melting temperature [°C]
[1], Crystal, DTA	-13.4

Conditions	Molar enthalpy of transition or fusion [kJ/mol]	molar heat capacity at constant pressure [J/K/mol]
[2]	20.2	–
[4]	–	584.19

CC(C)Cn1cc[n+](C)c1.O=S(=O)([N-]S(=O)(=O)C(F)(F)F)C(F)(F)F
Conditions	mass density [kg/m3]	refractive index	surface tension liquid-gas [mN/m]	viscosity [mPa·s]
[1], 293.15 K	1442.1	–	–	107.35
[1], 298.15 K	1437.2	–	–	81.44
[1], 298.2 K	–	–	32.72	–
[1], 303.15 K	1432.4	–	–	63.36
[1], 308.15 K	1427.7	–	–	50.3
[1], 308.2 K	–	–	32.26	–
[1], 313.15 K	1422.9	–	–	40.69
[1], 318.15 K	1418.2	–	–	33.4
[1], 318.2 K	–	–	31.81	–
[1], 323.15 K	1413.5	–	–	27.81
[1], 328.15 K	1408.8	–	–	23.46
[1], 328.2 K	–	–	31.35	–
[1], 333.15 K	1404.2	–	–	20.05
[1], 338.15 K	1399.5	–	–	17.24
[1], 338.2 K	–	–	30.9	–
[1], 343.15 K	1394.9	–	–	14.99
[1], 343.2 K	–	–	30.67	–
[1], 348.15 K	1390.3	–	–	13.14
[1], 353.15 K	1385.7	–	–	11.63
[1], 358.15 K	1381.1	–	–	10.31
[1], 363.15 K	1376.6	–	–	9.22
[3], 288.15 K	–	1.4301	–	–
[3], 293.15 K	–	1.42854	–	–
[3], 298.15 K	–	1.42699	–	–
[3], 303.15 K	–	1.42543	–	–
[3], 308.15 K	–	1.42387	–	–
[3], 313.15 K	–	1.42232	–	–
[3], 318.15 K	–	1.42076	–	–

Conditions	molar heat capacity at constant pressure [J/K/mol]
[4]	565.31

CCCC[n+]1ccn(C)c1.O=S(=O)([N-]S(=O)(=O)C(F)(F)F)C(F)(F)F
[3]
Conditions	refractive index
288.15 K	1.43015
293.15 K	1.4286
298.15 K	1.42705
303.15 K	1.4255
308.15 K	1.42396
313.15 K	1.42241
318.15 K	1.42086

Conditions	molar heat capacity at constant pressure [J/K/mol]
[4]	565.73

Cc1ccc[n+](CC(C)C)c1.O=S(=O)([N-]S(=O)(=O)C(F)(F)F)C(F)(F)F
Conditions	mass density [kg/m3]	refractive index	surface tension liquid-gas [mN/m]	viscosity [mPa·s]
[1], 293.15 K	1417.2	–	–	135.42
[1], 298.15 K	1412.6	–	–	100.1
[1], 298.2 K	–	–	33.45	–
[1], 303.15 K	1408	–	–	76.34
[1], 308.15 K	1403.4	–	–	59.56
[1], 308.2 K	–	–	32.99	–
[1], 313.15 K	1398.8	–	–	47.48
[1], 318.15 K	1394.2	–	–	38.42
[1], 318.2 K	–	–	32.54	–
[1], 323.15 K	1389.7	–	–	31.63
[1], 328.15 K	1385.1	–	–	26.4
[1], 328.2 K	–	–	32.08	–
[1], 333.15 K	1380.6	–	–	22.36
[1], 338.15 K	1376.1	–	–	19.08
[1], 338.2 K	–	–	31.63	–
[1], 343.15 K	1371.6	–	–	16.47
[1], 343.2 K	–	–	31.4	–
[1], 348.15 K	1367.2	–	–	14.35
[1], 353.15 K	1362.8	–	–	12.63
[1], 358.15 K	1358.4	–	–	11.14
[1], 363.15 K	1354.1	–	–	9.93
[3], 288.15 K	–	1.44902	–	–
[3], 293.15 K	–	1.44743	–	–
[3], 298.15 K	–	1.44585	–	–
[3], 303.15 K	–	1.44426	–	–
[3], 308.15 K	–	1.44268	–	–
[3], 313.15 K	–	1.44109	–	–
[3], 318.15 K	–	1.43951	–	–

Conditions	molar heat capacity at constant pressure [J/K/mol]
[4]	578.87
